# Measurements from US8618138B2, “Indole amide derivatives and related compounds for use in the treatment of neurodegenerative diseases” (Katholieke Universiteit Leuven, K.U. Leuven R&D, priority 2009, dated 2013).
# pEC50: −log10 of the molar value.
# What was measured:
# M17-TAU P301L cells = experiment: TAU cytotoxicity assay: LDH leakage of retinoic acid incubated M17-TAU P301L cells; format: cell-based, human; settings: Homo sapiens, 168 h, reduction of LDH activity of retinoic acid incubated M17-TAU P301L cells, 7 days
# Summary of the method: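 M17 neuroblastoma cells stably expressing human TAU P301L, seeded at 2500 cells/cm2 in Optimem with 1% FCS, then given 2.5 μM retinoic acid (stock before 1:1 addition) and grown 7 days at 37 °C. Cytotoxicity read as LDH leaked into medium; EC50 derived from these measurements.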
# [1] = tested on: TAU and phospho-isoforms thereof; experiment: In-vivo inhibition of pathological TAU-phosphorylation, Western analysis of soluble brain protein fractions; design: species or system Human TAU R406W transgenic mice
# Description: Quantification of Western analyses of TAU and phospho-TAU species of the soluble protein fraction prepared from […] of all individual mice used in this study (n=10 for each treatment group). TAU signals of all individual mice were normalized against neuron specific enolase (NSE) using antibodies (monoclonal anti-NSE antibody, clone 37E4, Abcam) to correct for possible loading control differences. The graphs depict the mean normalised TAU signals±SEM. The TAU signals were obtained by using antibodies directed against:
# (A) pan-TAU (anti-TAU monoclonal antibody (mAb) HT7, Thermo Scientific; detects all tau species independent of phosphorylation status),
# (B) phosphorylated tau on pS202, T205 (AD2 anti-TAU antibody, Biorad) and unphosphorylated tau on pS202 (anti-TAU-1 antibody, clone PC1C6, Millipore), the graph depicts the ratio of AD2/TAU-1;
# (C) phosphorylated tau on pT231 (AT180 anti-TAU mAb, Thermo Scientific), and
# (D) phosphorylated tau on pT181 (AT270 anti-TAU mAb, Thermo Scientific).
# Statistics: students two-tailed T-test*p<0.05, **p<0.01.
# Human TAU R406W transgenic mice (Zhang et al, J. of Neuroscience 24(19):4657-4667, 2004) were treated once-a-day subcutaneously for 4 weeks with compound D5 (see table 1) dissolved in arachidin oil at a dose of 35 mg/kg. Correspondingly vehicle treated transgenics were included as controls. At the end of the treatment period mice were sacrificed and brainstem was stereotactically collected. Soluble protein fractions were prepared (Terwel et al, J Biol Chem 280(5):3963-73, 2005) from the brain stem and subjected to Western analysis using antibodies directed against TAU and several different phospho-isoforms thereof.
# [2] = TAU R406W transgenic mice, 35 mg/kg subcutaneously once-a-day for 4 weeks, vs vehicle, Western blot of soluble protein fraction
smiles,measurement,setting,value
"O=C(NCCc1c[nH]c2ccc(Cl)cc12)c1cc(Cc2cc(F)ccc2F)on1 [Example D5, N-(2-(5-chloro-1H-indol-3-yl)ethyl)-5-(2,5-difluorobenzyl)isoxazole-3-carboxamide]",pEC50,M17-TAU P301L cells,7.92
same,"Phosphorylation of threonine residue 181 of TAU (AT270, FIG. 3 D)",[1]; [2],not affected
same,"TAU phosphorylated at serine 202 and tyrosine 205 (ratio AD2/TAU-1, FIG. 3 B)",[1]; [2],robust and statistically significant reduction
same,"TAU phosphorylated at tyrosine residue 231 (AT180, FIG. 3 C)",[1]; [2],robust and statistically significant reduction
same,"total TAU levels (pan-TAU, HT7 antibody, FIG. 3 A)",[1]; [2],not statistically significant affected
same,pathological TAU-species in-vivo (FIG. 3 legend),"[1]; Western analyses of TAU and phospho-TAU species, soluble protein fraction, n=10 per group",reduces pathological TAU-species in-vivo
